Experimental data published in US20250230171A1 (MOMA Therapeutics, Inc., priority 2023, published 2025).
Where two headings read alike, the source gives them in different places.

Molecular target: biotinylated Avi-POLθ[2-894] (Homo sapiens (Human), UniProt O75417)
Test: POLθ ATPase assay (ADP-Glo)
Conditions: n=2, read-out: Biochemical ATPase ADPGlo IC50
Method: In some embodiments, the ATPase assay a compound of the present disclosure is combined with biotinylated Avi-POLθ[2-894], a 50 nucleotide poly-thymine repeat single-stranded DNA, and ATP in buffer. In some embodiments, the mixture is incubated and ADP-Glo Reagent added, followed by a subsequent incubation. In some embodiments, a Kinase Detection Reagent may be added, followed by a third incubation. In some embodiments, the activity is measured via luminescence signal (e.g., measured with the EnVision multimode plate reader). POLθ-mediated ATP hydrolysis was measured using the ADP-Glo Kinase Assay (Promega Corporation, Madison, WI). Reactions were performed in white 384-well small-volume microplates (Greiner Bio-One, Frickenhausen, Germany) using a total volume of 15 μL. The ATPase reaction consisted of 1 nM biotinylated Avi-POLθ[2-894], 5 nM of a 50 nucleotide poly-thymine repeat single-stranded DNA (PolyT(50) ssDNA), and 100 μM ATP in 5 μL of assay buffer (50 mM Tris, pH 7.5, 80 mM KCl, 10 MgCl2, 1 mM DTT, 5% glycerol, 0.01% BSA, 0.01% Tween-20). Inhibition of POLΘATPase activity was determined by preparing 11-point serial dilutions of the test compounds in 100% DMSO, then transferring 30 nL of the compounds into the ATPase reaction using an Echo acoustic liquid handler (Beckman Coulter, Brea, CA). DMSO-treated wells containing either all of the reaction components (1 nM biotinylated Avi-POLθ[2-894], 5 nM PolyT(50) ssDNA, 100 μM ATP) or with assay buffer substituted for the biotinylated Avi-POLθ[2-894](0 nM biotinylated Avi-POLθ[2-894], 5 nM PolyT(50) ssDNA, 100 μM ATP) were used to define the maximum and minimum response in the assay. Following a one-hour incubation at ambient temperature, 5 μL of ADP-Glo Reagent was added to the ATPase reaction, and this mixture was allowed to incubate at ambient temperature for an additional hour. Lastly, 5 μL of Kinase Detection Reagent was added, followed by a third one-hour incubation at ambient temperature. […] Luminescence signal was measured using the EnVision multimode plate reader (Perkin Elmer. Waltham. MA). […] Non-linear regression analysis using the four-parameter logistic equation was conducted on the percent activity values of the compound dose-responses, yielding the AC50 value for each compound. Genedata Screener (Genedata. Basel, Switzerland) was used for the data analysis.

Sequence of biotinylated Avi-POLθ[2-894] (O75417 2-894): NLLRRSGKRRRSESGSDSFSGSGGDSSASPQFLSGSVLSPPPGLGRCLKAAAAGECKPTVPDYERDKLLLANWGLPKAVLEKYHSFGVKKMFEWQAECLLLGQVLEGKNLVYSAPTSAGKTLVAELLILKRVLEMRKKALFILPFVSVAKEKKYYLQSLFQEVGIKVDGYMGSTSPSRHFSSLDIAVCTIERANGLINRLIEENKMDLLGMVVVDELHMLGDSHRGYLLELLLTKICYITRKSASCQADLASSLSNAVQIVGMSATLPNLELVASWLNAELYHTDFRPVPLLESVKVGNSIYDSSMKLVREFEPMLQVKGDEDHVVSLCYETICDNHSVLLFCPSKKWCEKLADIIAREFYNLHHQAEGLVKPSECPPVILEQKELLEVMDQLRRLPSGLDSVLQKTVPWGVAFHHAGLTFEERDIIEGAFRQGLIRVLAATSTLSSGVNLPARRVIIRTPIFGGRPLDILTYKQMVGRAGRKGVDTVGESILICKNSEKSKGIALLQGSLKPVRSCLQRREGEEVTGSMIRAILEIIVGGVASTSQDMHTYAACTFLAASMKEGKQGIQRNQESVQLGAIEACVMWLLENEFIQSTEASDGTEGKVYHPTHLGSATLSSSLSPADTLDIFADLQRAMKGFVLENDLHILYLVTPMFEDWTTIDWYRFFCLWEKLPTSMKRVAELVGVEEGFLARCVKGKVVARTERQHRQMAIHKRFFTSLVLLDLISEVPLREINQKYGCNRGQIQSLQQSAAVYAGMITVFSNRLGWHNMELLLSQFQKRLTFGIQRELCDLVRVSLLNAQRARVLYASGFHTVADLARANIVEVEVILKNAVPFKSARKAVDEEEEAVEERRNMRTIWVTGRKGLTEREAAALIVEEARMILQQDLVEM

| IC50 [nM] | IC50 (POLθ ATPase, ADP-Glo) [nM] | Structure (SMILES) |
| --- | --- | --- |
| 1 to 15 | – | CCn1nccc1C(=O)N1Cc2nc(NC(=O)c3cnc(C)cc3-c3cc(Cl)ncc3OC)sc2C1 |
| 15 to 50 | – | COc1cnc(Cl)cc1-c1cc(C)ncc1C(=O)Nc1nc2c(s1)CN(C(=O)[C@H]1CCOC1)C2 |
| 1 to 15 | – | COc1ccc(C#N)cc1-c1cc(C)ncc1C(=O)Nc1nc2c(s1)CN(S(=O)(=O)N1CCC1)C2 |
| 15 to 50 | – | COc1ccc(C#N)cc1-c1cc(C)ncc1C(=O)Nc1nc2c(s1)CN(C(=O)[C@@H]1CC[C@@H]1C)C2 |
| 150 to 900 | – | COc1ccc(C#N)cc1-c1cc(C)ncc1C(=O)Nc1nc2c(s1)CN(C(=O)c1cccnc1)CC2 |
| 50 to 150 | – | CCNS(=O)(=O)N1CCc2nc(NC(=O)c3cnc(C)cc3-c3cc(C#N)ccc3OC)sc2C1 |
| 50 to 150 | – | COc1ccccc1-c1cc(C)ncc1C(=O)Nc1nc2c(s1)CN(C(=O)c1ncon1)C2 |
| 15 to 50 | – | COc1ccc(C#N)cc1-c1cc(C)ncc1C(=O)Nc1nc2c(s1)CN(S(=O)(=O)C1(C)CC1)C2 |
| 50 to 150 | – | COc1ccc(C#N)cc1-c1cc(C)ncc1C(=O)Nc1nc2c(s1)CN(S(=O)(=O)C1CCC1)C2 |
| 15 to 50 | – | COc1ccccc1-c1cc(C)ncc1C(=O)Nc1nc2c(s1)CN(S(=O)(=O)C1CCC1)C2 |
| 50 to 150 | – | COc1ccc(C#N)cc1-c1cc(C)ncc1C(=O)Nc1nc2c(s1)CN(S(=O)(=O)c1cccnc1)C2 |
| 50 to 150 | – | COc1ccccc1-c1cc(C)ncc1C(=O)Nc1nc2c(s1)CN(C(=O)c1ncco1)C2 |
| ≥ 900 | – | COc1ccccc1-c1cc(C)ncc1C(=O)Nc1nc2c(s1)CN(c1nccs1)C2 |
| 50 to 150 | – | COc1ccc(C#N)cc1-c1cc(C)ncc1C(=O)Nc1nc2c(s1)CN(S(=O)(=O)C1CCOCC1)C2 |
| 15 to 50 | – | COc1ccccc1-c1cc(C)ncc1C(=O)Nc1nc2c(s1)CN(S(=O)(=O)N1CCOCC1)C2 |
| 50 to 150 | – | COc1ccccc1-c1cc(C)ncc1C(=O)Nc1nc2c(s1)CC(Nc1ccccc1)CC2 (stereo not drawn) [listing 1 of 3 here] |
| 50 to 150 | – | CNS(=O)(=O)N1Cc2nc(NC(=O)c3cnc(C)cc3-c3ccccc3OC)sc2C1 |
| 50 to 150 | – | COc1ccccc1-c1cc(C)ncc1C(=O)Nc1nc2c(s1)CN(C(=O)C1CCC1)C2 |
| 150 to 900 | – | COC(=O)N1Cc2nc(NC(=O)c3cnc(C)cc3-c3ccccc3OC)sc2C1 |
| ≥ 900 | – | COc1ccccc1-c1cc(C)ncc1C(=O)Nc1nc2c(s1)CN(C(=O)C1(C#N)CC1)C2 |
| ≥ 900 | – | COc1ccccc1-c1cc(C)ncc1C(=O)Nc1nc2c(s1)CCCC2 |

| IC50 [nM] | IC50 (POLθ ATPase, ADP-Glo) [nM] | Structure (SMILES) |
| --- | --- | --- |
| ≥ 900 | – | COc1ccccc1-c1cc(C)ncc1C(=O)Nc1nc2c(s1)CN(C(=O)C1CCCCC1)CC2 |
| ≥ 900 | – | COc1ccccc1-c1cc(C)ncc1C(=O)Nc1nc2c(s1)CC(Nc1ccccc1)CC2 (stereo not drawn) [listing 3 of 3 here] |
| ≥ 900 | – | COc1ccccc1-c1cc(C)ncc1C(=O)Nc1nc2c(s1)CNC2 |
| ≥ 900 | – | COc1ccccc1-c1cc(C)ncc1C(=O)Nc1nc2c(s1)CN(C1CCCCC1)CC2 |
| ≥ 900 | – | COc1ccccc1-c1cc(C)ncc1C(=O)Nc1nc2c(s1)CCN(C(=O)OC(C)(C)C)C2 |
| – | 1 to 15 | COc1cnc(Cl)cc1-c1cc(C)ncc1C(=O)Nc1nc2c(s1)CN(C(=O)c1ccc(Cl)c(C(F)F)c1)C2 |
| – | 1 to 15 | COc1ccc(C#N)cc1-c1cc(C)ncc1C(=O)Nc1nc2c(s1)CN(C(=O)c1ccc(F)c(C(F)F)c1)C2 |
| – | 1 to 15 | COc1cnc(Cl)cc1-c1cc(C)ncc1C(=O)Nc1nc2c(s1)CN(C(=O)c1cccc3cncn13)C2 |
| – | 1 to 15 | COc1cnc(Cl)cc1-c1cc(C)ncc1C(=O)Nc1nc2c(s1)CN(C(=O)c1nccs1)C2 |
| – | 1 to 15 | COc1ccc(C#N)cc1-c1cc(C)ncc1C(=O)Nc1nc2c(s1)CN(C(=O)c1ccc(Cl)c(C(F)F)c1)C2 |
| – | 1 to 15 | COc1cnc(Cl)cc1-c1cc(C)ncc1C(=O)Nc1nc2c(s1)CN(C(=O)c1ccncn1)C2 |
| – | 1 to 15 | COc1cnc(Cl)cc1-c1cc(C)ncc1C(=O)Nc1nc2c(s1)CN(C(=O)c1cccc(OC(F)(F)F)n1)C2 |
| – | 1 to 15 | COc1cnc(Cl)cc1-c1cc(C)ncc1C(=O)Nc1nc2c(s1)CN(C(=O)c1cncc(C(F)(F)F)n1)C2 |
| – | 1 to 15 | COc1cnc(Cl)cc1-c1cc(C)ncc1C(=O)Nc1nc2c(s1)CN(C(=O)c1ncncc1Cl)C2 |
| – | 1 to 15 | COc1cc(Cl)c(C(=O)N2Cc3nc(NC(=O)c4cnc(C)cc4-c4cc(Cl)ncc4OC)sc3C2)nn1 |
| – | 1 to 15 | COc1cnc(Cl)cc1-c1cc(C)ncc1C(=O)Nc1nc2c(s1)CN(C(=O)c1nc(C(F)(F)F)co1)C2 |
| – | 1 to 15 | COc1cnc(Cl)cc1-c1cc(C)ncc1C(=O)Nc1nc2c(s1)CN(C(=O)c1ncc(C)nc1C)C2 |
| – | 1 to 15 | COc1cnc(Cl)cc1-c1cc(C)ncc1C(=O)Nc1nc2c(s1)CN(C(=O)c1ncc(C)n1C)C2 |
| – | 150 to 900 | COc1cnc(Cl)cc1-c1cc(C)ncc1C(=O)Nc1nc2c(s1)CN(C(=O)C1CCCC(OC(F)F)C1)C2 (stereo not drawn) |
| – | 150 to 900 | COc1cnc(Cl)cc1-c1cc(C)ncc1C(=O)Nc1nc2c(s1)C[C@@H](C(=O)N[C@H]1CC[C@H]1O)CC2 |
| – | 150 to 900 | COc1cnc(Cl)cc1-c1cc(C)ncc1C(=O)Nc1nc2c(s1)C[C@@H](C(=O)N[C@H]1CC[C@@H]1O)CC2 |

The remaining lines, values behind:

| Structure (SMILES) | IC50 [nM] | IC50 (POLθ ATPase, ADP-Glo) [nM] |
| --- | --- | --- |
| COc1cnc(Cl)cc1-c1cc(C)ncc1C(=O)Nc1nc2c(s1)CN(C(=O)N1CC(OC(F)F)C1)C2 | 1 to 15 | – |
| COc1ccc(C#N)cc1-c1cc(C)ncc1C(=O)Nc1nc2c(s1)CN(C(=O)[C@@H]1CC[C@H]1C)C2 | 1 to 15 | – |
| COc1ccc(C#N)cc1-c1cc(C)ncc1C(=O)Nc1nc2c(s1)CN(S(=O)(=O)N1CCCC1)CC2 | 50 to 150 | – |
| COc1ccc(C#N)cc1-c1cc(C)ncc1C(=O)Nc1nc2c(s1)CN(S(=O)(=O)c1ccc(C)cn1)C2 | 1 to 15 | – |
| COc1ccc(C#N)cc1-c1cc(C)ncc1C(=O)Nc1nc2c(s1)CN(S(=O)(=O)C1CCOC1)C2 (stereo not drawn) | 15 to 50 | – |
| COc1ccc(C#N)cc1-c1cc(C)ncc1C(=O)Nc1nc2c(s1)CN(S(=O)(=O)C1CCCC1)CC2 | 150 to 900 | – |
| COc1ccc(C#N)cc1-c1cc(C)ncc1C(=O)Nc1nc2c(s1)CN(C(=O)C1CCC1)C2 | 1 to 15 | – |
| COc1ccccc1-c1cc(C)ncc1C(=O)Nc1nc2c(s1)CN(C(=O)c1cocn1)C2 | 150 to 900 | – |
| COc1ccccc1-c1cc(C)ncc1C(=O)Nc1nc2c(s1)CN(C(=O)Cn1cccn1)C2 | ≥ 900 | – |
| COc1ccccc1-c1cc(C)ncc1C(=O)Nc1nc2c(s1)CN(C(=O)c1cnco1)C2 | 150 to 900 | – |
| COc1ccccc1-c1cc(C)ncc1C(=O)Nc1nc2c(s1)CN(S(=O)(=O)NCC(C)C)C2 | 50 to 150 | – |
| CCNS(=O)(=O)N1Cc2nc(NC(=O)c3cnc(C)cc3-c3ccccc3OC)sc2C1 | 15 to 50 | – |
| COc1ccccc1-c1cc(C)ncc1C(=O)Nc1nc2c(s1)CN(S(=O)(=O)N1CCCC1)C2 | 50 to 150 | – |
| COc1ccccc1-c1cc(C)ncc1C(=O)Nc1nc2c(s1)CC(Nc1ccccc1)CC2 (stereo not drawn) [listing 2 of 3 here] | 50 to 150 | – |
| COc1ccccc1-c1cc(C)ncc1C(=O)Nc1nc2c(s1)CC(c1ccc(Cl)cc1)CC2 (stereo not drawn) [listing 1 of 2 here] | 50 to 150 | – |
| COc1ccccc1-c1cc(C)ncc1C(=O)Nc1nc2c(s1)CN(S(=O)(=O)N(C)C)C2 | 150 to 900 | – |
| COc1ccccc1-c1cc(C)ncc1C(=O)Nc1nc2c(s1)CC(c1ccc(Cl)cc1)CC2 (stereo not drawn) [listing 2 of 2 here] | 150 to 900 | – |
| COc1ccccc1-c1cc(C)ncc1C(=O)Nc1nc2c(s1)CN(C(=O)N(C)C)C2 | ≥ 900 | – |
| COc1ccccc1-c1cc(C)ncc1C(=O)Nc1nc2c(s1)CC(Oc1ccccc1)CC2 (stereo not drawn) | ≥ 900 | – |
| COc1ccccc1-c1cc(C)ncc1C(=O)Nc1nc2c(s1)C(=O)N(C1CC1)C2 | ≥ 900 | – |
| CNC(=O)N1Cc2nc(NC(=O)c3cnc(C)cc3-c3ccccc3OC)sc2C1 | ≥ 900 | – |
| COc1ccccc1-c1cc(C)ncc1C(=O)Nc1nc2c(s1)COCC2 | ≥ 900 | – |
| COc1cnc(C(=O)N2Cc3nc(NC(=O)c4cnc(C)cc4-c4cc(Cl)ncc4OC)sc3C2)nc1 | – | 1 to 15 |
| COc1cnc(Cl)cc1-c1cc(C)ncc1C(=O)Nc1nc2c(s1)CN(C(=O)c1cnc(OC(F)F)cn1)C2 | – | 1 to 15 |
| COc1cnc(Cl)cc1-c1cc(C)ncc1C(=O)Nc1nc2c(s1)CN(C(=O)c1cncc(C)n1)C2 | – | 1 to 15 |
| COc1cnnc(C(=O)N2Cc3nc(NC(=O)c4cnc(C)cc4-c4cc(Cl)ncc4OC)sc3C2)c1 | – | 15 to 50 |
| COc1cnc(Cl)cc1-c1cc(C)ncc1C(=O)Nc1nc2c(s1)C[C@H](C(=O)N1CC(O)C1)CC2 | – | 50 to 150 |
| COc1cnc(Cl)cc1-c1cc(C)ncc1C(=O)Nc1nc2c(s1)C[C@H](C(=O)N[C@H]1CC[C@H]1O)CC2 | – | 150 to 900 |
| COc1cnc(Cl)cc1-c1cc(C)ncc1C(=O)Nc1nc2c(s1)C[C@H](C(=O)N[C@H]1CC[C@@H]1O)CC2 | – | 150 to 900 |
| COc1cnc(Cl)cc1-c1cc(C)ncc1C(=O)Nc1nc2c(s1)C[C@H](C(=O)N[C@@H]1CC[C@@H]1O)CC2 | – | 150 to 900 |
